{"source": "paper PMC7048932", "about": "“Examining sterically demanding lysine analogs for histone lysine methyltransferase catalysis” (Scientific Reports, 2020)", "key": {"SETD7 [1]": {"tested_on": "SETD7", "test": "MALDI-TOF MS methylation assay of H3K4 peptides with SETD7", "type": "biochemical, human", "details": "peptide 100 µM, SETD7 2 µM, SAM 200 µM, 1 h, 37 °C", "description": "(§1) MALDI-MS methyltransferases activity experiments were performed using a Bruker instrument in the reflectron positive mode. For regular methyltransferase standard conditions experiment which carried out in 30 µL total volume, the mixture contains peptide (100 µM), SAM (200 µM), SETD8 or SETD7 (2 µM), in assay buffer 50 mM Tris at optimal pH 8.0. In case of G9a and GLP, similar conditions were used, except (500 µM) of SAM was added to the reaction mixture. Samples were incubated in an Eppendorf vial 1.5 mL using thermomixer for 1 h at 37 °C. A 5 µL aliquot of the solution was mixed with 5 µL of MeOH, after which 5 µL of this mixture was mixed with 5 µL of α-cyano-4-hydroxycinamic acid matrix (CHCA, 5 mg/mL in 125:125 µL acetonitrile/water). The spots were placed on a stainless steel MALDI plate (MS 96 target ground steel BC of Bruker, Germany). The mass corresponding to one monomethylation observed as +14 Da, dimethylation observed as +28 Da and trimethylation observed as +42 Da. The enzymatic activity was determined by taking the peak areas of each methylation state, including all isotopes and adducts, and was annotated using FlexAnalysis software (Bruker Daltonics, Germany). […] Methylated peptide substrates were repeated five times and the unmethylated substrates were triplicated. Sequences of the examined peptides are given in (Supplementary Table 1)."}, "SETD7 [2]": {"tested_on": "SETD7", "test": "MALDI-TOF MS methylation assay of H3K4 peptides with SETD7", "type": "biochemical, human", "details": "peptide 100 µM, SETD7 10 µM, SAM 1 mM, 1 h and 3 h, 37 °C"}, "SETD8 [3]": {"molecular_target": "T1, SETD8 (Homo sapiens, UniProt Q9NQR1)", "T1 construct": "His6 (N); made in house; host or cells: E. coli BL21 (DE3)pLysS-rosetta", "T1 sequence (Q9NQR1 1-393)": "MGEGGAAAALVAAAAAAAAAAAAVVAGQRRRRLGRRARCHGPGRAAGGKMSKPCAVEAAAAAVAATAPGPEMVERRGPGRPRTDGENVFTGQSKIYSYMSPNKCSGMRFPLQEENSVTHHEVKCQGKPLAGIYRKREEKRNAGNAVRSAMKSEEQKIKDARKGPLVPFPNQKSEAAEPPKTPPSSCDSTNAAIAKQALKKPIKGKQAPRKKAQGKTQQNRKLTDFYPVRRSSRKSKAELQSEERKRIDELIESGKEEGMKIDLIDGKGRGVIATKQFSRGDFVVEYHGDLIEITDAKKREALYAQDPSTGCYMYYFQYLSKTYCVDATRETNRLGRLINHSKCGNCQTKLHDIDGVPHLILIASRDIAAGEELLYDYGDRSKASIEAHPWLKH", "test": "Competition study between H4K20 and analog peptides with SETD8 (MALDI-MS)", "type": "biochemical", "details": "SETD8, equimolar H4K20 (100 µM) and H4KCP20 (100 µM), SAM 200 µM, 1 h, 37 °C", "description": "Next, we carried out competition studies between histone peptides that bear lysine and its analogs. In the presence of SETD8, SAM and equimolar amounts of H4K20 and H4KCP20, we observed the formation of both monomethylated products, albeit a comparatively larger degree of monomethylation of H4K20 was found (70% of H4K20me, 40% of H4KCP20me). […] It is also possible that subtle differences in sterics and electronics of H4KCP20 when compared to H4K20 do contribute to observed differences in the degree of methylation in the competition experiment.\nFigure S31. MALDI-MS based assay showing ( a) SETD8-catalyzed monomethylation of […]\n(b) SETD8-catalyzed methylation of H4K20 (100 µM) in the presence of H4F 3a20 (100 µM) and SAM (200 µM) after 1 h at 37 °C; ( c) SETD8-catalyzed methylation of H4K20 (100 µM) in the presence of H4F 4a20 (100 µM) and SAM (200 µM) after 1 h at 37 °C; ( d) SETD8-catalyzed methylation of H4K20 (100 µM) in the presence of H4A p20 (100 µM) and SAM (200 µM) after 1 h at 37 °C; ( e) SETD8-catalyzed methylation of H4K20 (100 µM) in the presence of […]\n(1 picture or pasted object on this page, not shown here)"}, "SETD8 [4]": {"molecular_target": "T1, SETD8", "test": "MALDI-TOF MS methylation assay of H4K20 peptides with SETD8", "type": "biochemical", "details": "peptide 100 µM, 37 °C; for SETD8-catalyzed methylation, result in words, increased SETD8/SAM and prolonged incubation: SETD8 10 µM, SAM 1 mM, 1 h and 5 h, MALDI-MS", "description": "as §1, with “For regular methyltransferase standard conditions experiment which carried out in 30 µL total volume, the mixture contains peptide (100 µM), SAM (200 µM), SETD8 or SETD7 (2 µM), in assay buffer 50 mM Tris at optimal pH 8.0.” left out"}, "SETD8 [5]": {"molecular_target": "T1, SETD8", "test": "Enzyme kinetics of SETD8-catalyzed methylation (MALDI-TOF MS)", "type": "biochemical", "details": "MALDI-TOF MS assay", "description": "To establish the substrate efficiency of lysine- and KCP-containing histone peptides, we carried out enzyme kinetics analysis, employing the MALDI-TOF MS assays. Both enzymes preferentially catalyze methylation of natural histone sequences, however, bulkier KCP-containing peptides still underwent favorable kinetics profiles (Table 1 and Supplementary Fig. 30).\nas §1"}, "SETD7 [6]": {"tested_on": "SETD7", "test": "Inhibition study of SETD7 (MALDI-TOF MS)", "type": "biochemical, human", "details": "peptide 100 µM, SETD7 100 nM, SAM 20 µM, 21-mer H3 peptide 5 µM, 30 min, 37 °C", "description": "A mixture of histone peptide (0–100 µM final conc.) and SETD7, G9a or GLP (100 nM final conc.) was preincubated for 5 minutes at 37 °C in 18 µL of 50 mM glycine pH 8.8 containing 2.5% glycerol as assay buffer. Then 2 µL of a pre-mixture of SAM (20 µM final conc.) and 21-mer H3 histone peptide (residues 1–21, 5 µM final conc.) was added to afford a final assay mixture (20 µL) and the enzymatic reaction was incubated for an additional 30 minutes at 37 °C before quenching with 20 μL of MeOH. The quenched reaction (1 μL) was mixed with a solution of saturated α-cyano-4-hydroxycinnamic acid (5 μL) and spotted on the MALDI plate for crystallisation. The enzymatic activity was determined by taking the peak areas of each methylation state (including all isotopes and adducts) and is expressed relative to a control reaction in the absence of unnatural histone peptides. Each inhibition experiment was carried out in replicate."}, "[7]": {"details": "SETD8 2 µM, SAM 200 µM, 50 mM Tris pH 8.0, 1 h, MALDI-TOF MS"}}}
{"substance": "ART(Kcp4)QTARKSTGGKA [H3KCP4, H3K4 peptide bearing cyclopropyllysine at position 4]", "values": [{"measurement": "SETD7-catalyzed methylation, result in words", "setting": "SETD7 [1]", "result": "only traces"}, {"measurement": "SETD7-catalyzed methylation, result in words", "setting": "SETD7 [1]; listed as H3K CP4", "result": "traces of monomethylation"}, {"measurement": "SETD7-catalyzed methylation, result in words, high SETD7/SAM", "setting": "SETD7 [2]", "result": "increased amount of the monomethylated H3KCP4me product"}, {"measurement": "SETD7-catalyzed methylation, result in words, high SETD7/SAM", "setting": "SETD7 [2]; listed as H3K CP4", "result": "monomethylation"}]}
{"substance": "GGAKRHR(Kcp20)VLRDNIQ [H4KCP20, H4K20 peptide bearing cyclopropyllysine at position 20]", "values": [{"measurement": "monomethylated product formed in competition experiment", "setting": "SETD8 [3]", "result": 40, "unit": "%"}, {"measurement": "SETD8-catalyzed methylation, result in words", "setting": "SETD8 [4]; [7]", "result": "methylation"}, {"measurement": "monomethylated product formed (H4KCP20me)", "setting": "SETD8 [4]; [7]", "result": 60, "unit": "%"}, {"measurement": "SETD8-catalyzed methylation, result in words, increased SETD8/SAM and prolonged incubation", "setting": "SETD8 [4]", "result": "almost complete formation of the monomethylated H4KCP20me product"}, {"measurement": "SETD8-catalyzed methylation, result in words, increased SETD8/SAM and prolonged incubation", "setting": "SETD8 [4]; listed as H4K CP20", "result": "predominant monomethylation"}, {"measurement": "Km", "setting": "SETD8 [5]", "result": "172 ± 37", "unit": "µM"}, {"measurement": "kcat", "setting": "SETD8 [5]", "result": "0.0113 ± 0.0013", "unit": "s⁻¹"}, {"measurement": "kcat/KM", "setting": "SETD8 [5]", "result": 66, "unit": "M⁻¹ s⁻¹"}]}
{"substance": "GGAKRHRK^20VLRDNIQ [H4K20, reference compound]", "values": [{"measurement": "monomethylated product formed in competition experiment", "setting": "SETD8 [3]", "result": 70, "unit": "%"}, {"measurement": "SETD8-catalyzed methylation, result in words", "setting": "SETD8 [4]; [7]", "result": "quantitative monomethylation"}]}
{"substance": "ART(F4a4)QTARKSTGGKA [H3F4a4, H3K4 peptide bearing para-aminophenylalanine at position 4]", "values": [{"measurement": "SETD7-catalyzed methylation, result in words", "setting": "SETD7 [1]", "result": "lack of methylation"}, {"measurement": "inhibition of SETD7 at 100 µM peptide", "setting": "SETD7 [6]", "result": 11, "unit": "%"}]}
